Laboratory results taken from patent US20130210771A1, “METHODS AND COMPOSITIONS FOR TREATING CANCERS” (IRM LLC, priority 2007, published 2013).
Where a name gives a salt, the structure may show the parent alone.

Assays:
[1] = test system: BCR-ABL positive leukemia; experiment: treatment of mice transplanted with BCR-ABL positive bone marrow (CML-like disease); format: in vivo, mouse
Protocol: Ptch+/− mice (Jackson Laboratory), Smo−/− mice (Deltagene), C57BL/6 mice (Jackson laboratory) and B6-Pep3b-Ly5.1 (Pep) mice) are maintained and genotyped as described. For bone marrow transplantation experiments, C57BL/6 males are injected with 5-FU (150 mg/kg) intraperitoneal and sacrificed four days later. Bone marrow mononuclear cells are flushed from the leg bones, red blood cells are lysed with ammonium-chloride and bone marrow cells are cultivated in DMEM containing 10% FBS, SCF, IL-6 and IL-3. Cells are infected with a pMSCV/BCR-ABL/IRES/GFP retrovirus, 5×10^5 mononuclear cells are transplanted into lethally irradiated C57BL/6 mice. Treatment with AMN107 50 mg/kg bid (Novartis, Basel) and cyclopamine 25 mg/kg bid (Novartis, Cambridge) started day 7 after transplantation for 14 days.
Mice transplanted with BCR-ABL positive bone marrow is treated with either a suboptimal dose of the ABL inhibitor AMN107, or with a combination of AMN107 (50 mg/kg qd) and the Smo antagonist cyclopamine (25 mg/kg bid). Treatment is started seven days after transplantation and is continued for fourteen days total. At the end of the treatment, three mice in each group are sacrificed and bone marrow from 1 femur is plated in methyl cellulose colony assays without addition of cytokines to detect only BCR-ABL positive colonies.
Eight days after the end of treatment, another three mice per group are sacrificed and examined for signs of relapse by comparing liver and spleen weight. […] The five remaining mice in each group are monitored for signs of disease and sacrificed when moribund.

[2] = test system: Ba/F3 cells transfected with p210 non-mutated BCR-ABL; conditions: cited from earlier work
[3] = test system: Ba/F3 cells transfected with M351T mutant BCR-ABL; conditions: cited from earlier work
[4] = test system: Ba/F3 cells transfected with E255V mutant BCR-ABL; conditions: cited from earlier work
[5] = test system: CML; conditions: CML therapy; cited from earlier work
[6] = test system: BCR-ABL positive bone marrow cells; experiment: in vitro treatment of mixed bone marrow cultures from mice with CML-like syndrome, flow cytometry; format: cell-based, mouse
Protocol: (§1) Bone marrow cells from diseased mice are cultured in DMEM media containing 10% FBS (Gibco), SCF (RDI), IL-3 and IL-6 (R&D systems). For in-vitro treatment experiments, 4×10^6 bone marrow or spleen cells are seeded into 1 well of a 6-well plate. Cyclopamine-KAAD (obtained from Toronto Research Chemicals) is dissolved as ×1,000 stock in DMSO. After 72 hours of treatment, cells are plated in methyl cellulose media containing SCF, IL-6, IL-3 and insulin from stem cell technologies (M3434) according to the manufacturer's instruction. Colonies are counted 5 days and 10 days after plating. After 12 days, cells are diluted from the plates, washed in PBS and then either stained for analysis of different cell types or replated into a second or third plating round.
Flow cytometry stainings for analysis of hematological cell types is performed using the antibodies Sca-PE, Kit-APC, Lin markers CD3, Gr-1, CD11b, CD19, Ter119 all PE-Cy7 positive, CD4-PE, CD8-APC from BD Pharmingen according to the manufacturer's instructions. For cell cycle analysis of stem cells, cells are treated with cyclopamine for 48 hours, then stained with Lin markers, Kit-APC and Sca-PE. Stained bone marrow is then fixed in 2% Formalin. Cells are permeabilized with 70% chilled ethanol for at least 1 hour and then treated with propidium iodide (5 mg/ml) for at least 30 minutes. Cells are analyzed using a flow cytometer from Coulter. Annexin staining is performed after incubation of mixed bone marrow with cyclopamine for 24, 48 and 72 hours. Cells are stained with Annexin-PE antibody and 7-AAD (BD Bioscience) according to the manufacturer's instructions.
Bone marrow from mice with CML-like syndrome which contained about 50% BCR-ABL GFP positive cells versus 50% normal bone marrow cells is used. […] GFP positive cells after in vitro treatment with cyclopamine (2 μM or 5 μM) can be detected by flow cytometry analysis.
(§2) Gli1 transcript levels in the bone marrow are reduced after treatment with cyclopamine, verifying the inhibition of the hedgehog signaling pathway in those cells by the compound (FIG. 2B). In FIG. 2B, bone marrow cultures are treated with either DMSO alone or different concentrations of cyclopamine (2 μM or 5 μM) for six hours. RNA is extracted from treated cultures and Gli1 transcript levels are measured by Taqman PCT and normalized to GAPDH. Assays are done in triplicates.

[7] = test system: BCR-ABL positive colonies; experiment: methyl cellulose colony assay of pretreated mixed bone marrow and spleen cultures; format: cell-based, mouse; conditions: 10, 5, 2.5, 1 and 0 uM for 48 hours; colonies counted 10 days after plating, no cytokines (FIG. 2C)
Protocol: as §1
To further validate the effect of hedgehog pathway inhibition on the self renewing progenitor and leukemic stem cell population, mixed bone marrow and spleen cultures are treated with different concentrations of cyclopamine-KAAD (10, 5, 2.5, 1 and 0 uM) for 48 hours. The cells are then plated in methyl cellulose plates without supplementary cytokines, so that only BCR-ABL positive cells can survive. Colonies are counted 10 days after plating.

[8] = test system: Aurora kinases; conditions: cited from earlier work
[9] = test system: human CML K562 cells selected for resistance to imatinib; conditions: cited from earlier work
[10] = test system: Gli1; experiment: Gli1 transcript levels in treated bone marrow cultures (Taqman PCR); format: cell-based, mouse; conditions: 2 μM or 5 μM, six hours, normalized to GAPDH (FIG. 2B)
Protocol: RNA is extracted from CD34+ cells from CML patients in chronic phase or blast crisis of disease, from whole bone marrow or from sorted Lin−Kit+Sca+ positive cells using a Qiagen RNA extraction kit according to the manufacturer's recommendation. Quantitative PCR is assessed by Taqman PCR. Primers and probes are obtained from Applied Biosystems.
as §2

[11] = eight days after the end of treatment
[12] = mixed bone marrow cultures, 72 hours (FIG. 2A)

SMILES: Cc1cn(-c2cc(NC(=O)c3ccc(C)c(Nc4nccc(-c5cccnc5)n4)c3)cc(C(F)(F)F)c2)cn1 [AMN107, nilotinib]
- peripheral blood cell counts, spleen and liver weights ([1]; at the end of the treatment): normal
- average spleen size relative to the combination group [1, 11]: about double
- liver weight relative to the combination group [1, 11]: much higher
- average survival after end of treatment ([1]; five mice per group, sacrificed when moribund (FIG. 5C)): eight

SMILES: NC(=O)c1cccc(-c2cc(Nc3ccc(OC(F)(F)F)cc3)ncn2)c1 [GNF-2, 3-[6-[[4-(trifluoromethoxy)phenyl]amino]-4-pyrimidinyl]benzamide]
- proliferation of Ba/F3 cells, p210 non-mutated BCR-ABL [2]: inhibits the proliferation
- proliferation of Ba/F3 cells, M351T mutant BCR-ABL [3]: inhibits the proliferation
- proliferation of Ba/F3 cells, E255V mutant BCR-ABL [4]: inhibits the proliferation

SMILES: Cc1ccc(NC(=O)c2ccc(CN3CCN(C)CC3)cc2)cc1Nc1nccc(-c2cccnc2)n1 [Imatinib mesylate]
- response rates [5]: more than 96%

SMILES: CC1=C2C[C@H]3[C@@H](CC=C4CC(=O)CC[C@@]43C)[C@@H]2CC[C@]12O[C@@H]1C[C@H](C)CN(CCNC(=O)CCCCCNC(=O)CCc3ccccc3)[C@H]1[C@H]2C [KAAD-cyclopamine]
- reduction of the GFP/BCR-ABL positive population compared to the GFP negative population ([6]; mixed bone marrow cultures, three days, 2 μM or 5 μM): dose dependent reduction
- BCR-ABL positive colonies [7]: dose dependent reduction

SMILES: Cc1cc(Nc2cc(N3CCN(C)CC3)nc(Sc3ccc(NC(=O)C4CC4)cc3)n2)n[nH]1 [MK-0457]
- inhibition of all three Aurora kinases [8]: nanomolar range

SMILES: Cc1cc(Nc2ncc3cc(-c4c(Cl)cccc4Cl)c(=O)n(C)c3n2)ccc1F [PD180970]
- proliferation of imatinib-resistant K562 cells over-expressing Lyn [9]: inhibited

SMILES: CC1=C2C[C@H]3[C@@H](CC=C4C[C@@H](O)CC[C@@]43C)[C@@H]2CC[C@]12O[C@@H]1C[C@H](C)CN[C@H]1[C@H]2C [cyclopamine]
- Gli1 transcript levels in the bone marrow [10]: reduced
- alterations in the cell cycle, complete bone marrow ([6]; 48 hours, propidium iodide): relative increase of the G1 phase compared to S phase and G2 phase
- cell cycle analysis of the leukemic stem cell population ([6]; 48 hours, propidium iodide): complete loss of the G2 phase
- apoptosis induction in BCR-ABL positive bone marrow cells, time ([6]; AnnexinV staining): ≤ 24 h
- reduction of BCR-ABL positive myeloid progenitor cells (Lin−Kit+Sca−) [6, 12]: more than 80%
- reduction of the Lin−Kit+Sca+ leukemic stem cell population [6, 12]: around 70%
